Source: US6921777B2, “Heteroethynylenic compounds and pharmaceutical and cosmetic compositions containing them” (Galderma Research & Development, S.N.C., priority 1998, dated 2005)

Target: T1, RXRalpha (Homo sapiens, UniProt P19793)
T1 construct: expressed in transfected cells; host or cells: Cos7 monkey kidney cells
T1 sequence (P19793 1-462): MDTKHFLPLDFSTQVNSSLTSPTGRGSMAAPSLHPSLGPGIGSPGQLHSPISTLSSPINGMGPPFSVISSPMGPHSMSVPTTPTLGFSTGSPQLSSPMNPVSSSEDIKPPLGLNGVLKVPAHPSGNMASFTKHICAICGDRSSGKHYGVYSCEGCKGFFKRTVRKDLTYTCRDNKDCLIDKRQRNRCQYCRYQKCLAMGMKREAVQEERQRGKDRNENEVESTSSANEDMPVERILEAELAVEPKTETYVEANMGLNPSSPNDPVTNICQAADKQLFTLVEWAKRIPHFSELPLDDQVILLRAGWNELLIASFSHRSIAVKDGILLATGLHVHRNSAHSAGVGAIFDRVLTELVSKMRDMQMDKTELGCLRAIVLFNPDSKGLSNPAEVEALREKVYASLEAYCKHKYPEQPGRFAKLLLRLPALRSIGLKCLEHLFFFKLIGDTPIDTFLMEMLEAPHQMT
Assay: RXR antagonist transactivation test (cotransfection pSG5-RXRalpha / CRBPII-tk-Luc, luciferase)
Type: cell-based
Conditions: Cos7 cells; for inhibition at 1 µM: COS-7, test compound at 10^−6M final, 3 nM reference agonist, treatment 18 h, luciferase activity, read-out: % of inhibition of the induction obtained with the agonist alone; for IC50: in the presence of 3 nM agonist 6-[1-(3,5,5,8,8-pentamethyl-5,6,7,8-tetrahydro-2-naphthalenyl)cyclopropyl]nicotinic acid, 5 concentrations 10^−5 to 10^−9 M, read-out: IC50 (dose required to achieve 50% inhibition of the agonist activity)
Description: a) Determination of the IC50 values of the antagonist compounds
The dose-response curve obtained makes it possible to determine the IC50 value which is specific to the compound.
b) Test of RXR Antagonist Transactivation
The properties of inhibition of the activation of the RXR response elements (RXRE) can be determined by recognized methods of the art.
The receptor expression plasmid pSG5-RXRalpha and the reporter plasmid CRBPII-tk-Luc are introduced into the Cos7 monkey kidney cell line by the method of coprecipitation with calcium phosphate described in Molecular Cloning: A laboratory manual (Sambrook et al. eds. Cold Spring Harbor Lab. Publ. 1989). […] The test compound is added at 10^−6M final. After treatment for 18 h, the cells are rinsed with PBS and lysed in 0.1M KPO4 (pH 7.8), 1.0% Triton X100, 1.0 mM DTT, 1 mM EDTA. The luciferase activity of the cell lysatesis measured as described by deWet et al. in Mol. Cell. Biol. 7:725 (1987).

Row | inhibition at 1 µM [%] | IC50 [nM] | Structure (SMILES)
1 | 57 | 671 | CCCOc1cc2c(cc1[Se]C#CC(C)=CC(=O)O)C(C)(C)CCC2(C)C [EXAMPLE 10, 3-Methyl-5-(5,5,8,8-tetramethyl-3-propoxy-5,6,7,8-tetrahydronaphthalen-2-ylselenyl)pent-2-en-4-ynoic Acid]
2 | 92 | 71 | CCCOc1cc([Se]C#CC(C)=CC(=O)O)cc2c1C(C)(C)CCC2(C)C [EXAMPLE 12, 3-Methyl-5-(5,5,8,8-tetramethyl-4-propoxy-5,6,7,8-tetrahydronaphthalen-2-ylselenyl)pent-2-en-4-ynoic Acid]
3 | 61 | 471 | COCOc1cc([Se]C#CC(C)=CC(=O)O)cc2c1C(C)(C)CCC2(C)C [EXAMPLE 14, 5-(4-Methoxymethoxy-5,5,8,8-tetramethyl-5,6,7,8-tetrahydronaphthalen-2-ylselenyl)-3-methylpent-2-en-4-ynoic Acid]
